One data set relates to BMEC. Particulars: BMEC treated with glucocorticoid; cited from earlier work.
Data set [1] is described as follows: Fluorescein flux through BMEC monolayer co-cultured with differentiating NPC (in vitro BBB model). The class given is in vitro ADME, rat. The conditions noted are these: rat; through the in vitro model, BMEC with NPC co-culture, 1 μM apical; read-out: permeability (Pe) (converted). From the text:
(§1) Many methods can be used to determine BBB permeability as well as uptake and efflux rates using an in vitro model. As an example, the rates for trans-BBB transport can be used to directly determine a pseudo steady-state permeability value (Pe) which is an estimate of in vivo permeability for a particular pharmaceutical compound, protein, or drug carrier. With the assumption that the concentration in the upper fluid compartment is static, and with a correction for the resistance provided by the membrane itself, the permeability can be readily determined for each test compound. Briefly, the transcytosis rate (Q) can be divided by the concentration of material added to the apical chamber (Ca) and the area of the membrane (Am) to yield a total permeability (Pt) that includes resistances due to the monolayer and the membrane (Pt=Q/[AmCa], or using clearance volume terminology Pt is equal to the slope of the clearance volume versus time line divided by the membrane area). Subsequently, Pe can be calculated by correcting for the resistance supplied by the cell free membrane (Pm) (1/Pe=1/Pt−1/Pm) (Bickel, U. How to measure drug transport across the blood-brain barrier. NeuroRx 2005, 2, 15-26.).
(§2) The permeability was assessed by determining the flux of fluorescein through the BMEC monolayer. Fluorescein sodium salt in DMEM was added to the apical filter compartment to produce a uniform initial concentration of 1 μM. Subsequently, 200 μl were removed from the basolateral compartment after 0, 15, 30, 45, and 60 min. The fluorescence was measured with the FLx800 fluorescence reader (Bio-Tek Instruments) and the rates of fluorescein accumulation in the lower compartment used to determine the permeability as described previously (Perriere et al. 2005).

A further data set concerns BMEC monolayer. The description is as above. Format: in vitro ADME, rat.
Text: as §1, §2

A further data set has as its system rat BMEC. The conditions noted are these: rat BMEC co-cultured with astrocytes; cited from earlier work.
For data set [2] the following is noted: cited from earlier work.

The source of these data is US8293495B2, “Blood-brain barrier model” (Wisconsin Alumni Research Foundation, priority 2006, dated 2012).

Structures can show the parent of a compound that is named as a salt.

In the case of `C[C@]12C[C@H](O)[C@H]3[C@@H](CCC4=CC(=O)CC[C@@]43C)[C@@H]1CC[C@@H]2C(=O)CO` [corticosterone], in the data set on BMEC, the TEER is given as 168 Ω×cm^2 and the frayed junctions is 21 % frayed.
Consider `C[C@]12CCC(=O)C=C1CC[C@@H]1[C@@H]2[C@@H](O)C[C@@]2(C)[C@H]1CC[C@]2(O)C(=O)CO` [hydrocortisone], for which, in the data set on BMEC, the TEER is reported as 218 Ω×cm^2 and the frayed junctions is 12 % frayed.
In the case of `O=C1OC2(c3ccc(O)cc3Oc3cc(O)ccc32)c2ccccc21` [fluorescein, Fluorescein sodium salt], in data set [1], the Papp A→B at 60 min, 1 μM was 5.5 ×10⁻⁶ cm/s. Further, the “reduction of monolayer permeability by NPC co-culture” value with BMEC monolayer (BMEC with differentiating NPC vs BMEC without NPC, 24 h co-culture) was 33%. For the same molecule, the “permeability (Pe)” value with BMEC monolayer (through the in vitro model, BMEC with NPC co-culture, 1 μM apical) was 5.5 ×10⁻⁶ cm/s. In the data set on rat BMEC, the fluorescein permeability is 4.5 ×10⁻⁶ cm/s. Also, the “crossing of the BBB in vivo” value in data set [2] was “does not appreciably cross the BBB”.
